Experimental data: patent US9695155B2, “Herbicidal substituted pyrimidinyloxy benzene compounds” (E. I. DU PONT DE NEMOURS AND COMPANY, priority 2013, dated 2017)

Tests used:
pigweed [1] = assay: Test A preemergence; format: in vivo, Amaranthus retroflexus
Summary of the method: (§1)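 Visual 0–100 rating (100 = complete control) taken about 10 d post-treatment relative to untreated checks. Preemergence: directed soil spray on sown loam/sand pots. Postemergence: seedlings 2–10 cm, 1–2 leaf. Non-phytotoxic solvent formulation with surfactant.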

kochia [2] = assay: Test A postemergence; format: in vivo, Kochia scoparia
Excerpt: (§2) Seeds of plant species selected from barnyardgrass (Echinochloa crus-galli), kochia (Kochia scoparia), ragweed (common ragweed, Ambrosia elatior), Italian ryegrass (Lolium multiflorum), large (Lg) crabgrass (Digitaria sanguinalis), giant foxtail (Setaria faberii), morningglory (Ipomoea spp.), pigweed (Amaranthus retroflexus), velvetleaf (Abutilon theophrasti), wheat (Triticum aestivum), and corn (Zea mays) were planted into a blend of loam soil and sand and treated preemergence with a directed soil spray using test chemicals formulated in a non-phytotoxic solvent mixture which included a surfactant.
(§3) At the same time, plants selected from these crop and weed species and also blackgrass (Alopecurus myosuroides), and galium (catchweed bedstraw, Galium aparine) were planted in pots containing the same blend of loam soil and sand and treated with postemergence applications of test chemicals formulated in the same manner. Plants ranged in height from 2 to 10 cm and were in the one- to two-leaf stage for the postemergence treatment. Treated plants and untreated controls were maintained in a greenhouse for approximately 10 days, after which time all treated plants were compared to untreated controls and visually evaluated for injury. Plant response ratings, summarized in Table A, are based on a 0 to 100 scale where 0 is no effect and 100 is complete control. A dash (-) response means no test result.

blackgrass = assay: Test A postemergence; format: in vivo, Alopecurus myosuroides
Excerpt: as §2, §3

barnyardgrass [3] = assay: Test B flooded paddy test; format: in vivo, Echinochloa crus-galli; conditions: Flood, 250 g ai/ha; 0 to 100 scale where 0 is no effect and 100 is complete control
Summary of the method: (§4)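 Scores from 0 (no effect) to 100 (complete control) are visual comparisons with controls, taken 13 to 15 days after compound was applied into floodwater 3 cm deep around 2-leaf plants.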

barnyardgrass [4] = assay: Test A preemergence; format: in vivo, Echinochloa crus-galli
Summary of the method: as §1

Italian ryegrass [5] = assay: Test A preemergence; format: in vivo, Lolium multiflorum
Excerpt: as §2, §3

ragweed [6] = assay: Test A preemergence; format: in vivo, Ambrosia elatior
Excerpt: as §2, §3

kochia [7] = assay: Test A preemergence; format: in vivo, Kochia scoparia
Excerpt: as §2, §3

wheat = assay: Test A postemergence; format: in vivo, Triticum aestivum
Summary of the method: as §1

Italian ryegrass [8] = assay: Test A postemergence; format: in vivo, Lolium multiflorum
Excerpt: as §2, §3

barnyardgrass [9] = assay: Test A postemergence; format: in vivo, Echinochloa crus-galli
Summary of the method: as §1

galium = assay: Test A postemergence; format: in vivo, Galium aparine
Excerpt: as §2, §3

pigweed [10] = assay: Test A postemergence; format: in vivo, Amaranthus retroflexus
Summary of the method: as §1

Heteranthera limosa = assay: Test B flooded paddy test; format: in vivo; conditions: Flood, 250 g ai/ha; 0 to 100 scale where 0 is no effect and 100 is complete control
Summary of the method: as §4

giant foxtail [11] = assay: Test A preemergence; format: in vivo, Setaria faberii
Summary of the method: as §1

corn = assay: Test A postemergence; format: in vivo, Zea mays
Summary of the method: as §1

sedge, umbrella = assay: Test B flooded paddy test; format: in vivo, Cyperus difformis; conditions: Flood, 250 g ai/ha; 0 to 100 scale where 0 is no effect and 100 is complete control
Summary of the method: as §4

rice = assay: Test B flooded paddy test; format: in vivo, Oryza sativa; conditions: Flood, 250 g ai/ha; 0 to 100 scale where 0 is no effect and 100 is complete control
Summary of the method: as §4

ragweed [12] = assay: Test A postemergence; format: in vivo, Ambrosia elatior
Excerpt: as §2, §3

giant foxtail [13] = assay: Test A postemergence; format: in vivo, Setaria faberii
Summary of the method: as §1

[14] = 125 g ai/ha, 0 to 100 scale where 0 is no effect and 100 is complete control
[15] = 500 g ai/ha, 0 to 100 scale where 0 is no effect and 100 is complete control
[16] = 1000 g ai/ha, 0 to 100 scale, 0 no effect, 100 complete control, approx. 10 days
[17] = 1000 g ai/ha, 0 to 100 scale, 0 no effect, 100 complete control

Structure (SMILES): CC(F)c1cccc(Oc2ncc(Cl)cn2)c1-n1cc(Br)cn1 (centres unmarked) [Compound 146]
- Plant response rating, Pigweed (pigweed [1]; [14]): 60
- Pigweed plant response rating (pigweed [1]; [15]): 100
- Kochia plant response rating (kochia [2]; [14]): 70
- Plant response rating, Kochia (kochia [2]; [15]): 100
- Blackgrass plant response rating (blackgrass; [14]): 20
- Plant response rating, Blackgrass (blackgrass; [15]): 70
- Plant response rating, Barnyardgrass (barnyardgrass [3]): 20
- Plant response rating, Barnyardgrass (barnyardgrass [4]; [14]): 20
- Barnyardgrass plant response rating (barnyardgrass [4]; [15]): 90
- Plant response rating, Ryegrass, Italian (Italian ryegrass [5]; [14]): 0
- Ryegrass, Italian plant response rating (Italian ryegrass [5]; [15]): 50
- Plant response rating, Ragweed (ragweed [6]; [14]): 0
- Ragweed plant response rating (ragweed [6]; [15]): 100
- Plant response rating, Kochia (kochia [7]; [14]): 40
- Kochia plant response rating (kochia [7]; [15]): 100
- Wheat plant response rating (wheat; [14]): 0
- Plant response rating, Wheat (wheat; [15]): 0
- Ryegrass, Italian plant response rating (Italian ryegrass [8]; [14]): 0
- Plant response rating, Ryegrass, Italian (Italian ryegrass [8]; [15]): 40
- Barnyardgrass plant response rating (barnyardgrass [9]; [14]): 10
- Plant response rating, Barnyardgrass (barnyardgrass [9]; [15]): 60
- Galium plant response rating (galium; [14]): 50
- Plant response rating, Galium (galium; [15]): 100
- Pigweed plant response rating (pigweed [10]; [14]): 100
- Plant response rating, Pigweed (pigweed [10]; [15]): 100
- Plant response rating, Ducksalad (Heteranthera limosa): 40
- Plant response rating, Foxtail, Giant (giant foxtail [11]; [14]): 70
- Foxtail, Giant plant response rating (giant foxtail [11]; [15]): 100
- Corn plant response rating (corn; [14]): 10
- Plant response rating, Corn (corn; [15]): 30
- Plant response rating, Sedge, Umbrella (sedge, umbrella): 40
- Plant response rating, Rice (rice): 0
- Ragweed plant response rating (ragweed [12]; [14]): 10
- Plant response rating, Ragweed (ragweed [12]; [15]): 10
- Foxtail, Giant plant response rating (giant foxtail [13]; [14]): 20
- Plant response rating, Foxtail, Giant (giant foxtail [13]; [15]): 80

Structure (SMILES): CCNC(=O)c1cccc(Oc2ncc(Cl)cn2)c1-n1cc(C(F)(F)F)cn1 [Compound 257]
- Pigweed plant response rating (pigweed [1]; [16]): 80
- Plant response rating, Kochia (kochia [2]; [17]): 60
- Plant response rating, Blackgrass (blackgrass; [17]): 10
- Barnyardgrass plant response rating (barnyardgrass [4]; [16]): 50
- Ryegrass, Italian plant response rating (Italian ryegrass [5]; [16]): 20
- Ragweed plant response rating (ragweed [6]; [16]): 70
- Kochia plant response rating (kochia [7]; [16]): 70
- Plant response rating, Wheat (wheat; [17]): 0
- Plant response rating, Ryegrass, Italian (Italian ryegrass [8]; [17]): 0
- Plant response rating, Barnyardgrass (barnyardgrass [9]; [17]): 10
- Plant response rating, Galium (galium; [17]): 30
- Plant response rating, Pigweed (pigweed [10]; [17]): 40
- Foxtail, Giant plant response rating (giant foxtail [11]; [16]): 70
- Plant response rating, Corn (corn; [17]): 0
- Plant response rating, Ragweed (ragweed [12]; [17]): 30
- Plant response rating, Foxtail, Giant (giant foxtail [13]; [17]): 10

Structure (SMILES): CCN(CC)C(=O)c1cccc(Oc2ncc(Cl)cn2)c1-n1cc(C(F)(F)F)cn1 [Compound 263]
- Pigweed plant response rating (pigweed [1]; [16]): 10
- Plant response rating, Kochia (kochia [2]; [17]): 10
- Plant response rating, Blackgrass (blackgrass; [17]): 20
- Barnyardgrass plant response rating (barnyardgrass [4]; [16]): 0
- Ryegrass, Italian plant response rating (Italian ryegrass [5]; [16]): 0
- Ragweed plant response rating (ragweed [6]; [16]): 0
- Kochia plant response rating (kochia [7]; [16]): 20
- Plant response rating, Wheat (wheat; [17]): 0
- Plant response rating, Ryegrass, Italian (Italian ryegrass [8]; [17]): 0
- Plant response rating, Barnyardgrass (barnyardgrass [9]; [17]): 0
- Plant response rating, Galium (galium; [17]): 10
- Plant response rating, Pigweed (pigweed [10]; [17]): 10
- Foxtail, Giant plant response rating (giant foxtail [11]; [16]): 50
- Plant response rating, Corn (corn; [17]): 0
- Plant response rating, Ragweed (ragweed [12]; [17]): 0
- Plant response rating, Foxtail, Giant (giant foxtail [13]; [17]): 0
